Test results published in patent US10017584B2, “6-deoxy-6-thioether-amino acid cyclodextrin derivative and preparation method thereof” (Hangzhou Adamerck Pharmlabs Inc., priority 2010, dated 2018).
Read-outs that look alike come from different tables or passages of the source.

Key:
[1] = tested on: muscular relaxation induced by rocuronium bromide; assay: Reversal of rocuronium bromide induced muscular relaxation in anaesthetised Guinea pigs (TOF-Watch SX monitor); type: in vivo, Guinea pig
Excerpt: After pentobarbital sodium anesthesia in the abdominal cavity, the Guinea pigs are fixed on rat boards and connected to small animal ventilators after endotracheal intubation. Stimulating electrodes of a muscular relaxation monitor, TOF-Watch SX, are respectively connected to left post-femur and post-tibialis subcutis of the Guinea pig. Self-made tools are used to fix the left tibialis on a small platform while permitting the left hind paw to be able to move freely. A sensor is fixed on a palm surface of a left hind leg of the Guinea pig and a probe of skin temperature is fixed on a palm surface of a left front leg of the Guinea pig.

[2] = tested on: small mice; conditions: according to reports; cited from earlier work
[3] = tested on: small mice; assay: Toxic reactions after intravenous tail injection in male small mice; conditions: intravenous injection at the tail, 200 mg/ml, 4000 mg/kg
Excerpt: (§1) Male small mice are processed with intravenous injection with compounds of the present invention at the tails.

[4] = tested on: small mice; conditions: mouse, in vivo, iv, 4000 mg/kg
Excerpt: as §1

[5] = Guinea pig, compound 2 mg/kg given when TOFR disappears and T1 decreases more than 80%, after i.v. rocuronium bromide (twice ED90 dose)
[6] = guinea pig, in vivo, iv, 2 mg/kg

Molecule: 6-per-deoxy-6-per-(N-ethyl-D-cysteine)thioether-β-cyclodextrin [CD-28]
- T1 recovering to 25%/time [1, 5]: 8.25 min
- T1 recovering to 50%/time [1, 5]: 12.25 min
- T1 recovering to 75%/time [1, 5]: 15.00 min
- TOF recovering to 50%/time [1, 5]: 12.75 min
- TOF recovering to 75%/time [1, 5]: 16.25 min

Molecule: 6-per-deoxy-6-per-(N-ethyl-D-cysteine)thioether-β-cyclodextrin sodium salt [CD-29]
- T1 recovering to 25%/time [1, 6]: 6.75 min
- T1 recovering to 50%/time [1, 6]: 8.50 min
- T1 recovering to 75%/time [1, 6]: 9.25 min
- TOF recovering to 50%/time [1, 6]: 6.50 min
- TOF recovering to 75%/time [1, 6]: 8.25 min

Molecule: 6-per-deoxy-6-per-(N-methyl-D-cysteine)thioether-β-cyclodextrin [CD-26]
- T1 recovering to 25%/time [1, 5]: 7.75 min
- T1 recovering to 50%/time [1, 5]: 12.25 min
- T1 recovering to 75%/time [1, 5]: 16.00 min
- TOF recovering to 50%/time [1, 5]: 8.00 min
- TOF recovering to 75%/time [1, 5]: 11.75 min

Molecule: 6-per-deoxy-6-per-(N-methyl-D-cysteine)thioether-β-cyclodextrin sodium salt [CD-27]
- T1 recovering to 25%/time [1, 6]: 8.25 min
- T1 recovering to 50%/time [1, 6]: 11.25 min
- T1 recovering to 75%/time [1, 6]: 16.00 min
- TOF recovering to 50%/time [1, 6]: 8.25 min
- TOF recovering to 75%/time [1, 6]: 10.75 min

Molecule: 6-per-deoxy-6-per-(α-L-glycine ethyl)thioether-γ-cyclodextrin [CD-16]
- T1 recovering to 25%/time [1, 6]: 2.25 min
- T1 recovering to 50%/time [1, 6]: 3.50 min
- T1 recovering to 75%/time [1, 6]: 8.50 min
- TOF recovering to 50%/time [1, 6]: 3.50 min
- TOF recovering to 75%/time [1, 6]: 5.75 min

Molecule: 6-per-deoxy-6-per-(α-L-glycine methyl)sulfinyl-γ-cyclodextrin [CD-5]
- T1 recovering to 25%/time [1, 6]: 3.50 min
- T1 recovering to 50%/time [1, 6]: 4.25 min
- T1 recovering to 75%/time [1, 6]: 8.25 min
- TOF recovering to 50%/time [1, 6]: 4.75 min
- TOF recovering to 75%/time [1, 6]: 7.25 min

Molecule: O=C(O)CCSC[C@H]1O[C@@H]2O[C@H]3[C@H](O)[C@@H](O)[C@@H](O[C@H]4[C@H](O)[C@@H](O)[C@@H](O[C@H]5[C@H](O)[C@@H](O)[C@@H](O[C@H]6[C@H](O)[C@@H](O)[C@@H](O[C@H]7[C@H](O)[C@@H](O)[C@@H](O[C@H]8[C@H](O)[C@@H](O)[C@@H](O[C@H]9[C@H](O)[C@@H](O)[C@@H](O[C@H]1[C@H](O)[C@H]2O)O[C@@H]9CSCCC(=O)O)O[C@@H]8CSCCC(=O)O)O[C@@H]7CSCCC(=O)O)O[C@@H]6CSCCC(=O)O)O[C@@H]5CSCCC(=O)O)O[C@@H]4CSCCC(=O)O)O[C@@H]3CSCCC(=O)O [Bridion, sugammadex]
- maximal safe dose [2]: 2000 mg/kg

Molecule: N[C@@H](CSC[C@H]1O[C@@H]2O[C@H]3[C@H](O)[C@@H](O)[C@@H](O[C@H]4[C@H](O)[C@@H](O)[C@@H](O[C@H]5[C@H](O)[C@@H](O)[C@@H](O[C@H]6[C@H](O)[C@@H](O)[C@@H](O[C@H]7[C@H](O)[C@@H](O)[C@@H](O[C@H]8[C@H](O)[C@@H](O)[C@@H](O[C@H]9[C@H](O)[C@@H](O)[C@@H](O[C@H]1[C@H](O)[C@H]2O)O[C@@H]9CSC[C@H](N)C(=O)[O-])O[C@@H]8CSC[C@H](N)C(=O)[O-])O[C@@H]7CSC[C@H](N)C(=O)[O-])O[C@@H]6CSC[C@H](N)C(=O)[O-])O[C@@H]5CSC[C@H](N)C(=O)[O-])O[C@@H]4CSC[C@H](N)C(=O)[O-])O[C@@H]3CSC[C@H](N)C(=O)[O-])C(=O)[O-].[Na+].[Na+].[Na+].[Na+].[Na+].[Na+].[Na+].[Na+] [CD-7, 6-per-deoxy-6-per-(α-L-glycinemethyl)thioether-γ-cyclodextrin sodium salt]
- T1 recovering to 25%/time [1, 6]: 1.25 min
- T1 recovering to 50%/time [1, 6]: 1.50 min
- T1 recovering to 75%/time [1, 6]: 2.75 min
- TOF recovering to 50%/time [1, 6]: 1.25 min
- TOF recovering to 75%/time [1, 6]: 1.50 min
- result description (toxic reactions) [3]: normal

Molecule: CC(=O)NC(CSC[C@H]1O[C@@H]2O[C@H]3[C@H](O)[C@@H](O)[C@@H](O[C@H]4[C@H](O)[C@@H](O)[C@@H](O[C@H]5[C@H](O)[C@@H](O)[C@@H](O[C@H]6[C@H](O)[C@@H](O)[C@@H](O[C@H]7[C@H](O)[C@@H](O)[C@@H](O[C@H]8[C@H](O)[C@@H](O)[C@@H](O[C@H]9[C@H](O)[C@@H](O)[C@@H](O[C@H]1[C@H](O)[C@H]2O)O[C@@H]9CSCC(NC(C)=O)C(=O)O)O[C@@H]8CSCC(NC(C)=O)C(=O)O)O[C@@H]7CSCC(NC(C)=O)C(=O)O)O[C@@H]6CSCC(NC(C)=O)C(=O)O)O[C@@H]5CSCC(NC(C)=O)C(=O)O)O[C@@H]4CSCC(NC(C)=O)C(=O)O)O[C@@H]3CSCC(NC(C)=O)C(=O)O)C(=O)O (stereo partly drawn) [CD-8, 6-per-deoxy-6-per-(N-acetylglycinemethyl)thioether-γ-cyclodextrin]
- T1 recovering to 50%/time [1, 6]: 2.75 min
- T1 recovering to 75%/time [1, 6]: 4.25 min
- TOF recovering to 50%/time [1, 6]: 2.50 min
- TOF recovering to 75%/time [1, 6]: 3.50 min

Molecule: CC(=O)NC(CSC[C@H]1O[C@@H]2O[C@H]3[C@H](O)[C@@H](O)[C@@H](O[C@H]4[C@H](O)[C@@H](O)[C@@H](O[C@H]5[C@H](O)[C@@H](O)[C@@H](O[C@H]6[C@H](O)[C@@H](O)[C@@H](O[C@H]7[C@H](O)[C@@H](O)[C@@H](O[C@H]8[C@H](O)[C@@H](O)[C@@H](O[C@H]9[C@H](O)[C@@H](O)[C@@H](O[C@H]1[C@H](O)[C@H]2O)O[C@@H]9CSCC(NC(C)=O)C(=O)[O-])O[C@@H]8CSCC(NC(C)=O)C(=O)[O-])O[C@@H]7CSCC(NC(C)=O)C(=O)[O-])O[C@@H]6CSCC(NC(C)=O)C(=O)[O-])O[C@@H]5CSCC(NC(C)=O)C(=O)[O-])O[C@@H]4CSCC(NC(C)=O)C(=O)[O-])O[C@@H]3CSCC(NC(C)=O)C(=O)[O-])C(=O)[O-].[Na+].[Na+].[Na+].[Na+].[Na+].[Na+].[Na+].[Na+] (stereo partly drawn) [CD-9, 6-per-deoxy-6-per-(N-acetylglycinemethyl)thioether-γ-cyclodextrin sodium salt]
- T1 recovering to 25%/time [1, 6]: 1.25 min
- T1 recovering to 50%/time [1, 6]: 1.75 min
- TOF recovering to 50%/time [1, 6]: 1.50 min
- TOF recovering to 75%/time [1, 6]: 3.25 min
- result description (toxic reactions) [3]: normal

Molecule: N[C@@H](CCSC[C@H]1O[C@@H]2O[C@H]3[C@H](O)[C@@H](O)[C@@H](O[C@H]4[C@H](O)[C@@H](O)[C@@H](O[C@H]5[C@H](O)[C@@H](O)[C@@H](O[C@H]6[C@H](O)[C@@H](O)[C@@H](O[C@H]7[C@H](O)[C@@H](O)[C@@H](O[C@H]8[C@H](O)[C@@H](O)[C@@H](O[C@H]9[C@H](O)[C@@H](O)[C@@H](O[C@H]1[C@H](O)[C@H]2O)O[C@@H]9CSCC[C@H](N)C(=O)[O-])O[C@@H]8CSCC[C@H](N)C(=O)[O-])O[C@@H]7CSCC[C@H](N)C(=O)[O-])O[C@@H]6CSCC[C@H](N)C(=O)[O-])O[C@@H]5CSCC[C@H](N)C(=O)[O-])O[C@@H]4CSCC[C@H](N)C(=O)[O-])O[C@@H]3CSCC[C@H](N)C(=O)[O-])C(=O)[O-].[Na+].[Na+].[Na+].[Na+].[Na+].[Na+].[Na+].[Na+] [CD-17, 6-per-deoxy-6-per-(α-L-amino acid ethyl)thioether-γ-cyclodextrin sodium salt]
- T1 recovering to 25%/time [1, 5]: 3.00 min
- T1 recovering to 50%/time [1, 5]: 5.25 min
- T1 recovering to 75%/time [1, 5]: 7.75 min
- TOF recovering to 50%/time [1, 5]: 3.00 min
- TOF recovering to 75%/time [1, 5]: 6.25 min
- result description (toxic reactions) [3]: normal

Molecule: CC(C)(SC[C@H]1O[C@@H]2O[C@H]3[C@H](O)[C@@H](O)[C@@H](O[C@H]4[C@H](O)[C@@H](O)[C@@H](O[C@H]5[C@H](O)[C@@H](O)[C@@H](O[C@H]6[C@H](O)[C@@H](O)[C@@H](O[C@H]7[C@H](O)[C@@H](O)[C@@H](O[C@H]8[C@H](O)[C@@H](O)[C@@H](O[C@H]9[C@H](O)[C@@H](O)[C@@H](O[C@H]1[C@H](O)[C@H]2O)O[C@@H]9CSC(C)(C)[C@@H](N)C(=O)[O-])O[C@@H]8CSC(C)(C)[C@@H](N)C(=O)[O-])O[C@@H]7CSC(C)(C)[C@@H](N)C(=O)[O-])O[C@@H]6CSC(C)(C)[C@@H](N)C(=O)[O-])O[C@@H]5CSC(C)(C)[C@@H](N)C(=O)[O-])O[C@@H]4CSC(C)(C)[C@@H](N)C(=O)[O-])O[C@@H]3CSC(C)(C)[C@@H](N)C(=O)[O-])[C@@H](N)C(=O)[O-].[Na+].[Na+].[Na+].[Na+].[Na+].[Na+].[Na+].[Na+] [CD-20, 6-per-deoxy-6-per-(α-D-amino acid dimethyl)sulfinyl-γ-cyclodextrin sodium salt]
- result description (toxic reactions) [4]: normal

Molecule: N[C@H](CSC[C@H]1O[C@@H]2O[C@H]3[C@H](O)[C@@H](O)[C@@H](O[C@H]4[C@H](O)[C@@H](O)[C@@H](O[C@H]5[C@H](O)[C@@H](O)[C@@H](O[C@H]6[C@H](O)[C@@H](O)[C@@H](O[C@H]7[C@H](O)[C@@H](O)[C@@H](O[C@H]8[C@H](O)[C@@H](O)[C@@H](O[C@H]1[C@H](O)[C@H]2O)O[C@@H]8CSC[C@@H](N)C(=O)[O-])O[C@@H]7CSC[C@@H](N)C(=O)[O-])O[C@@H]6CSC[C@@H](N)C(=O)[O-])O[C@@H]5CSC[C@@H](N)C(=O)[O-])O[C@@H]4CSC[C@@H](N)C(=O)[O-])O[C@@H]3CSC[C@@H](N)C(=O)[O-])C(=O)[O-].[Na+].[Na+].[Na+].[Na+].[Na+].[Na+].[Na+] [CD-25, 6-per-deoxy-6-per-(α-D-glycinemethyl)thioether-β-cyclodextrin sodium salt]
- result description (toxic reactions) [3]: normal
